The record followed here is EP0788498B1, “PHENYLOXAZOLIDINONE ANTIMICROBIALS” (priority 1994, dated 1996).

≈ marks a conversion by molar mass, not a printed value. Read-outs that look alike come from different tables or passages of the source.

For one assay, the system named is S. aureus UC® 9213. Briefly: Minimum inhibitory concentration (MIC) by agar dilution. It is filed as cell-based. To be noted: Staphylococcus aureus. From the text: (§1) The oxazolidinone antibacterial agents of this invention have useful activity against a variety of organisms. The in vitro activity of compounds of this invention can be assessed by standard testing procedures such as the determination of minimum inhibitory concentration (MIC) by agar dilution as described in "Methods for Dilution Antimicrobial Susceptibility Tests for Bacteria That Grow Aerobically" (MFT) published Jan. 1983 by the National Committee for Clinical Laboratory Standards, 771 East Lancaster Avenue, Villanova, Pennsylvania 19084, USA. The activity of selected compounds of this invention against Staphylococcus aureus and Streptococcus pneumoniae are shown in Table 1.
In general terms: In agar dilution, organisms are placed on agar that contains the substance at set levels.

For another assay, the system named is S. pneumoniae UC® 9912. The assay is described as above. It is filed as cell-based. Particulars: Streptococcus pneumoniae.
Excerpt: as §1

Where [1] appears, read: UC9213, in vitro, agar dilution, strain UC® 9213, read-out: Minimum Inhibitory Concentration S. aureus UC® 9213.
Where [2] appears, read: UC9912, in vitro, agar dilution, strain UC® 9912, read-out: Minimum Inhibitory Concentration S. pneumoniae UC® 9912.

As to `COC(=O)N[C@H]1CN(c2ccc(N3C[C@H](CNC(C)=O)OC3=O)cc2F)C[C@H]1C` (relative stereo) [Example 14], the results for the MIC in the assay with S. aureus UC® 9213 (setting [1]) and in the assay on S. pneumoniae UC® 9912 (setting [2]) were 4 µg/mL (≈ 9.79 µM) and 1 µg/mL (≈ 2.45 µM), respectively.
The like results for `CC(=O)NC[C@H]1CN(c2ccc(N3C[C@@H](C)[C@@H](NC(=O)CO)C3)c(F)c2)C(=O)O1` (relative stereo) [Example 15] were, in that order, 16 µg/mL (≈ 39.2 µM) and 2 µg/mL (≈ 4.9 µM).
`CC(=O)NC[C@H]1CN(c2ccc(N3C[C@@H](C)[C@@H](NS(C)(=O)=O)C3)c(F)c2)C(=O)O1` (relative stereo) [Example 16]: the MIC in the assay with S. aureus UC® 9213 (setting [1]) was found to be 8 µg/mL (≈ 18.7 µM); in the assay on S. pneumoniae UC® 9912 (setting [2]) it was 1 µg/mL (≈ 2.33 µM).
The like results for `COC1CN(c2ccc(N3C[C@H](CNC(C)=O)OC3=O)cc2F)C1` [Example 1, (S)-N-[[3-[3-fluoro-4-(3-methoxy-1-azetidinyl]phenyl]-2-oxo-5-oxazolidinyl]methyl]acetamide] were, in that order, 4 µg/mL (≈ 11.9 µM) and 2 µg/mL (≈ 5.93 µM).
`CC(=O)NC[C@H]1CN(c2ccc(N3CC(O)C3)c(F)c2)C(=O)O1` [Example 2, (S)-N-[[3-[3-fluoro-4-(3-hydroxy-1-azetidinyl)phenyl]-2-oxo-5-oxazolidinyl]methyl]acetamide]: the MIC in the assay with S. aureus UC® 9213 (setting [1]) worked out at 4 µg/mL (≈ 12.4 µM); with S. pneumoniae UC® 9912 (setting [2]), 2 µg/mL (≈ 6.19 µM).
The like results for `CC(=O)NC[C@H]1CN(c2ccc(N3CC(N(C)CCF)C3)c(F)c2)C(=O)O1` [Example 3, (S)-N-[[3-[3-fluoro-4-[3-[N-(2-fluoroethyl)-N-methylamino]-1-azetidinyl]phenyl]-2-oxo-5-oxazolidinyl]methyl]acetamide] were, in that order, 16 µg/mL (≈ 41.8 µM) and 8 µg/mL (≈ 20.9 µM).
The like results for `CC(=O)NC[C@H]1CN(c2ccc(N3CC(=O)C3)c(F)c2)C(=O)O1` [Example 4, (S)-N-[[3-[3-fluoro-4-(3-oxo-1-azetidinyl)phenyl]-2-oxo-5-oxazolidinyl]methyl]acetamide] were, in that order, 1 µg/mL (≈ 3.11 µM) and 0.5 µg/mL (≈ 1.56 µM).
The like results for `CON=C1CN(c2ccc(N3C[C@H](CNC(C)=O)OC3=O)cc2F)C1` [Example 5, (S)-N-[[3-[3-fluoro-4-[3-(methoxyimino)-1-azetidinyl]phenyl]-2-oxo-5-oxazolidinyl]methyl]acetamide] were, in that order, 4 µg/mL (≈ 11.4 µM) and 1 µg/mL (≈ 2.85 µM).
Turning to `COC1(C)CN(c2ccc(N3C[C@H](CNC(C)=O)OC3=O)cc2F)C1` [Example 6, (S)-N-[[3-[3-fluoro-4-(3-methoxy-3-methyl-1-azetidinyl)phenyl]-2-oxo-5-oxazolidinyl]methyl]acetamide], the MIC in the assay on S. aureus UC® 9213 (setting [1]) was found to be 8 µg/mL (≈ 22.8 µM); in the assay on S. pneumoniae UC® 9912 (setting [2]), 4 µg/mL (≈ 11.4 µM).
As for `CC(=O)NC[C@H]1CN(c2ccc(N3CC(C)(O)C3)c(F)c2)C(=O)O1` [Example 7, (S)-N-[[3-[3-fluoro-4-(3-hydroxy-3-methyl-1-azetidinyl)phenyl]-2 oxo-5-oxazolidinyl]methyl]acetamide], the MIC was 8 µg/mL (≈ 23.7 µM) in the assay with S. aureus UC® 9213 (setting [1]) and 2 µg/mL (≈ 5.93 µM) in the assay on S. pneumoniae UC® 9912 (setting [2]).
As for `CC(=O)NC[C@H]1CN(c2ccc(N3C[C@@H]4OC(C)(C)O[C@@H]4C3)c(F)c2)C(=O)O1` [Example 8, (S)-N-[[3-[4-(1-Aza-5,5-dimethyl-4,6-dioxabicyclo[3,3,0]octan-1-yl)-3-fluorophenyl]-2-oxo-5-oxazolidinyl]methyl]acetamide], the results for the MIC in the assay on S. aureus UC® 9213 (setting [1]) and in the assay with S. pneumoniae UC® 9912 (setting [2]) were 32 µg/mL (≈ 81.3 µM) and 8 µg/mL (≈ 20.3 µM), respectively.
Take `CC(=O)NC[C@H]1CN(c2ccc(N3C[C@@H](O)[C@@H](O)C3)c(F)c2)C(=O)O1` [Example 9, (S)-N-[[3-[4-(3,4-cis-dihydroxypyrrolidinyl)-3-fluorophenyl]-2-oxo-5-oxazolidinyl]methyl]acetamide]: the MIC in the assay with S. aureus UC® 9213 (setting [1]) worked out at 8 µg/mL (≈ 22.6 µM); in the assay with S. pneumoniae UC® 9912 (setting [2]), 2 µg/mL (≈ 5.66 µM).
Regarding `CC(=O)NC[C@H]1CN(c2ccc(N3CCC(O)C3)c(F)c2)C(=O)O1` (stereo partly drawn) [Example 10, (S)-N-[[3-[4-(3-hydroxypyrrolidinyl)-3-fluorophenyl]-2-oxo-5-oxazolidinyl]methyl]acetamide], the MIC in the assay with S. aureus UC® 9213 (setting [1]) is 2 µg/mL (≈ 5.93 µM); in the assay on S. pneumoniae UC® 9912 (setting [2]), 1 µg/mL (≈ 2.96 µM).
On to `CC(=O)NC[C@H]1CN(c2ccc(N3CCC(=O)C3)c(F)c2)C(=O)O1` [Example 11, (S)-N-((3-(3-fluoro-4-(3-oxopyrrolidinyl)phenyl)-2-oxo-5-oxazolidinyl)methyl)acetamide], for which the MIC turned out to be 4 µg/mL (≈ 11.9 µM) with S. aureus UC® 9213 (setting [1]) and 2 µg/mL (≈ 5.96 µM) in the assay with S. pneumoniae UC® 9912 (setting [2]).
As to `CC(=O)NC[C@H]1CN(c2ccc(N3CCC(NC(=O)COCc4ccccc4)C3)c(F)c2)C(=O)O1` (stereo partly drawn) [Example 12, (S)-N-((3-(3-Fluoro-4-(3-(phenylmethoxyacetylamino)pyrrolidinyl)phenyl)-2-oxo-5-oxazolidinyl)methyl)acetamide], the MIC is 8 µg/mL (≈ 16.5 µM) in the assay on S. aureus UC® 9213 (setting [1]) and 2 µg/mL (≈ 4.13 µM) in the assay with S. pneumoniae UC® 9912 (setting [2]).
For `CC(=O)NC[C@H]1CN(c2ccc(N3CCC(NC(=O)CO)C3)c(F)c2)C(=O)O1` (stereo partly drawn) [Example 13, (S)-N-((3-(3-Fluoro-4-(3-(hydroxyacetylamino)pyrrolidinyl)phenyl)-2-oxo-5-oxazolidinyl)methyl)acetamide], the MIC in the assay on S. aureus UC® 9213 (setting [1]) was 16 µg/mL (≈ 40.6 µM); in the assay on S. pneumoniae UC® 9912 (setting [2]) it was 2 µg/mL (≈ 5.07 µM).
For `CN[C@H](CC(C)C)C(=O)N[C@H]1C(=O)N[C@@H](CC(N)=O)C(=O)N[C@H]2C(=O)N[C@H]3C(=O)N[C@H](C(=O)N[C@H](C(=O)O)c4cc(O)cc(O)c4-c4cc3ccc4O)[C@H](O)c3ccc(c(Cl)c3)Oc3cc2cc(c3O[C@@H]2O[C@H](CO)[C@@H](O)[C@H](O)[C@H]2O[C@H]2C[C@](C)(N)[C@H](O)[C@H](C)O2)Oc2ccc(cc2Cl)[C@H]1O` [vancomycin, reference compound], the MIC in the assay on S. aureus UC® 9213 (UC9213, read-out: Minimum Inhibitory Concentration S. aureus UC® 9213) was found to be 1 µg/mL (≈ 0.69 µM); with S. pneumoniae UC® 9912 (UC9912, read-out: Minimum Inhibitory Concentration S. pneumoniae UC® 9912), 0.5 µg/mL (≈ 0.345 µM).
